# Measured values: patent US11090389B2, “Mitochondrially targeted PARP inhibitor, and uses thereof” (University of Pittsburgh—Of the Commonwealth System of …, priority 2016, dated 2021)
# Assays:
# [1] = test system: rat primary cortical neurons; assay: Cytotoxicity in rat primary cortical neurons, LDH release at 24 h; conditions: for concentration at which neurotoxicity (defined as >10% cell death) was seen: n=6/group
# Experimental: Cytotoxicity was assessed by LDH release from dying neurons at 24 h.
# [2] = test system: primary cortical neurons; assay: Oxygen-glucose deprivation (OGD) in primary cortical neurons, LDH release; assay type: cell-based, rat
# Experimental: (§1) To model ischemia-reperfusion in vitro, culture medium was replaced with a pre-equilibrated low glucose (0.5 mM) medium. Neurons were transferred into a sealed hypoxic chamber (Coy Laboratory Products Inc., Grass Lake, Mich.) set to an atmosphere of 95% N2 with 5% CO2 at 37° C. for 2 h. After OGD neurons were removed from the chamber and returned to the incubator.
# To determine whether mitochondria-targeting XJB-veliparib can promote neuronal survival in ischemia-like conditions in vitro, primary cortical neurons at 12 DIV were subjected to OGD. Cultured neurons were exposed to a hypoxic and glucose-depleted environment for 2 h, followed by normal culture conditions for 24 h to mimic ischemia/reperfusion injury. […] Specifically, 10 nM XJB-veliparib reduced cell death by 67% (LDH release 12.4±3.1% vs. 38.0±2.5%, 10 nM XJB-veliparib vs. vehicle; mean±SD; P<0.05).
# [3] = test system: HT22 cells; assay: Glutamate-induced ferroptotic cell death in HT22 cells, LDH release; assay type: cell-based, mouse; conditions: 5 mM glutamate; for effect on glutamate-induced ferroptosis: LDH release at 24 h
# Experimental: HT22 cells were cultured at 37° C. in Dulbecco's modified Eagle's medium (DMEM) (Invitrogen Inc., Carlsbad, Calif.) supplemented with 10% fetal bovine serum (FBS) (Thermo Fisher Scientific, San Jose, Calif.) and 1% penicillin-streptomycin (ATCC, Manassas, Va.) in an atmosphere containing 5% CO2. Cells were cultured for 24 to 48 hr before use.
# [4] = test system: primary cortical neurons; assay: Mitochondrial and cytosolic NAD+ concentration in primary cortical neurons after OGD; assay type: cell-based, rat; conditions: for mitochondrial NAD+ stores after OGD: 10 nM before OGD, measured 24 h after OGD
# Experimental: FIG. 8. Mitochondrial and cytosolic NAD^+ concentration in primary cortical neurons after OGD. […] NAD+ concentration measured 24 h after OGD. Assay performed in duplicate.
# as §1
# [5] = test system: primary cortical neurons; assay: Cellular localization of poly(ADP-ribose) polymers after OGD (immunofluorescence, confocal and STED microscopy); assay type: cell-based, rat; conditions: 10 nM, OGD 2 h; for PAR immunofluorescence after OGD (confocal): triplicate
# Experimental: Neurons grown on poly-D-lysine coated glass coverslips were fixed in 2% paraformaldehyde and permeabilized with TritonX-100. Coverslips were then incubated in a 1:200 dilution of mouse monoclonal antibody against PAR (SA216, ENzo Life Sciences, Inc., Farmingdale, N.Y.) and an antibody against TOMM20 (Abcam, Cambridge, Mass.) followed by incubation in the appropriate secondary antibodies. Cell nuclei were labelled with 4′,6 diamidino-2-phenylindole (DAPI) for standard confocal microscopy or DRAQ5 (both from ThermoFisher Scientific, Waltham, Mass.) for STED microscopy. Images were collected using an Olympus Fluoview 1000 confocal microscope (Olympus Corporation of the Americas, Center Valley, Pa.).
# For STED imaging a Leica TCS SP8 super resolution STED microscope with a pulsed white light laser and AOBS detection system was used (Leica Microsystems, Wetzlar, Germany). Images were collected using the 775 nm STED laser line with 30% 3D STED using the Leica STED WHITE oil objective lens (HC PL APO 100×/1.40 OIL) with a 200 Hz scan speed and 2× line averaging. Pixel size was set to 45 nm/pixel, step size was set to […], and pinhole was set at 132.8 μm (0.875 AU). TOMM20 was visualized using Alexa Fluor 555, exciting at 553 nm and detecting between 558-599 nm and temporally gate between […]. PAR was visualized with Alexa Fluor 594, exciting at 598 nm and detecting between 603-666 nm and temporally gated between 0.3-6.0 nsec. DRAQ5 (ThermoFisher Scientific, Waltham, Mass.) was excited at 662 and detected between 667 to 780 nm and temporally gated between 0.3-6.0 nsec. Channels were collected between stacks, sequentially.
# The cellular localization of poly(ADP-ribose) (PAR) polymers, a footprint of PARP activation, was examined in primary cortical neurons after OGD using immunohistochemistry and confocal microscopy.
# To evaluate the impact of XJB-veliparib on mitochondrial structure after OGD, we used stimulation emission depletion (STED) microscopy and immunohistochemistry. Primary rat cortical neurons were treated with 10 nM XJB-veliparib or vehicle and then exposed to OGD for 2 h.
# [6] = test system: mouse embryo fibroblasts (MEF); assay: IR-induced cell death in mouse embryo fibroblasts, Annexin V/PI flow cytometry; assay type: cell-based; conditions: for survival after IR: 10, 20 μM for 30 min prior to 10 Gy IR, survival at 48 h, mean±SD, vehicle 68.4%±2.2
# Experimental: MEF cells were treated with 10, 20 μM XJB-veliparib for 30 min prior to 10 Gy IR (309 R/min, Cs137 source), media was changed to drugless media 4 h post-IR. Survival was assessed at 48 h by Annexin V-FTIC/PI flow cytometry. […] Mean±SD, *p<0.05, ****p<0.0001.
# [7] = test system: mouse embryo fibroblasts (MEF); assay: γ-irradiation-induced mitochondrial DNA damage in MEFs (qPCR); assay type: cell-based; conditions: 20 μM for 30 min prior to 10 Gy IR
# Experimental: PARylation of mtDNA repair enzymes, polymerase-γ and exo/endonucleaseG, by mt-PARP1 is thought interfere with normal mtDNA repair. […] Cells were harvested and DNA extracted 4 and 24 h post-IR. […] ANOVA, *p<0.05, **p<0.01.
# [8] = biological target: T1, PARP1 (Homo sapiens, UniProt P09874); assay: PARP1 activity, commercial assay (Trevigen), histone-coated wells with active PARP1 enzyme and NAD+; assay type: biochemical; conditions: active PARP1 enzyme; triplicate; FIG. 4
# Experimental: The capacity to inhibit PARP1 was determined using a commercial assay (Trevigen, Gaithersburg, Md.) as per manufacturer's direction.
# [9] = Mitochondrial enrichment: LC-MS quantification in mitochondria- and nuclear-enriched fractions of neurons; assay type: in vitro ADME, rat; conditions: neurons exposed to 100 nM for 24 h; mean±SD; n=3
# Experimental: Water (150 μL) was added and the solution was vortexed (15 sec) and set aside to equilibrate at room temperature (30 min). The resulting suspension was placed in an Eppendorf Centrifuge 5702 (4400 rpm, 20° C.) for 12 min. The organic layer was extracted and filtered through a 0.45 μm filter for analysis.
# The concentration was reported as pM concentration of XJB-Veliparib per 10 μg of protein with corresponding standard deviation values.
# To verify mitochondrial enrichment, rat primary cortical neurons were exposed to 100 nM XJB-veliparib for 24 h. Mitochondria- and nuclear-enriched subcellular fractions were obtained and verified by western blot using antibodies against the cytochrome oxidase subunit Vα (COX Vα) and histone H3, respectively (FIG. 6A). In mitochondria-enriched fractions, the LCMS analysis of XJB-veliparib indicated a concentration of 116±55 pmol/10 μg protein compared with 29±27 pmol/10 μg protein in nuclear-enriched fractions (FIG. 6B; mean±standard deviation [SD]; n=3 independent experiments).
# [10] = biological target: T1, PARP1; assay: PARP1 inhibitory capacity of mitochondria-enriched fractions spiked with active PARP1 enzyme; assay type: biochemical; conditions: triplicate
# T1 sequence (P09874 whole entry): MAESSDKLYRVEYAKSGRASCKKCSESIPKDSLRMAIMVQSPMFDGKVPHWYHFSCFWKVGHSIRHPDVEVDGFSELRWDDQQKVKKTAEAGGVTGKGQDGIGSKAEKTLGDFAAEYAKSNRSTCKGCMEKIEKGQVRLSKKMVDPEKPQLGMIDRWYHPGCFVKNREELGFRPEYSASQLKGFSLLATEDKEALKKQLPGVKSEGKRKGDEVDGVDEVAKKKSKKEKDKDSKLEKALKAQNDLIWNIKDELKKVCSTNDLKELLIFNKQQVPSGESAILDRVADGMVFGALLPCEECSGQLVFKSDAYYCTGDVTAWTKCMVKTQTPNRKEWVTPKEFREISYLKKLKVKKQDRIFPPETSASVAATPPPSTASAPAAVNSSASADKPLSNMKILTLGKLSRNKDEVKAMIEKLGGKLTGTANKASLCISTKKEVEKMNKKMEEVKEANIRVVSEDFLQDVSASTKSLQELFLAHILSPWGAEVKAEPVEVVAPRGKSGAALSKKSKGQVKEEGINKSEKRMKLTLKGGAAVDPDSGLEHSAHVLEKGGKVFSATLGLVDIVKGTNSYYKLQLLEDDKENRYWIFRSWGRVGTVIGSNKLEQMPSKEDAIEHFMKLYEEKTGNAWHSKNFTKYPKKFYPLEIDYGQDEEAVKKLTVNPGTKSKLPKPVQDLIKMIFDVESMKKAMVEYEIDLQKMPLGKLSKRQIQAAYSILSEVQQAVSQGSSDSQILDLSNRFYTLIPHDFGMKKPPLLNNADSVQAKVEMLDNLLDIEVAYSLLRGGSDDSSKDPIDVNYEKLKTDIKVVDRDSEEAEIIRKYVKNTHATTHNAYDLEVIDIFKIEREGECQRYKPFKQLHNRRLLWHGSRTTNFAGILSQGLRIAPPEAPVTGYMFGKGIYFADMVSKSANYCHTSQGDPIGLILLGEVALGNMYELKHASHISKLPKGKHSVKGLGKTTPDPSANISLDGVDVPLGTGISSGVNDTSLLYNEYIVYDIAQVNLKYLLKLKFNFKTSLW
smiles,measurement,setting,value
"CC1(c2nc3c(C(N)=O)cccc3[nH]2)CCCN1 (stereo in doubt) [veliparib, 1,2-[(S)-2-methylpyrrolidin-2-yl]-1H-benzimidazole-4-carboxamide, reference compound]",concentration at which neurotoxicity (defined as >10% cell death) was seen,[1],1 µM
same,protection against OGD at concentrations >100 nM,[2],no additional protection
same,effect on glutamate-induced ferroptosis,[3],inhibit glutamate-induced ferroptosis
same,mitochondrial NAD+ stores after OGD,[4],preserve mitochondrial NAD^+ stores
same,PAR immunofluorescence after OGD (confocal),[5],reduction of PAR immunofluorescence
same,survival after IR,[6],57.1%
same,effect on mtDNA lesions compared to vehicle irradiated cells,[7],no effect
"CC(C)C[C@@H](/C=C/[C@H](Cc1ccccc1)C(=O)N1CCC[C@H]1C(=O)N[C@H](C(=O)N[C@@H](CCCNC(=O)OCc1ccccc1)C(=O)NCCCNC(=O)c1cccc2[nH]c([C@]3(C)CCCN3)nc12)C(C)C)NC(=O)OC(C)(C)C [XJB-Veliparib, tert-Butyl ((4S,7S, E)-7-benzyl-2-methyl-8-((S)-2-(((S)-3-methyl-1-(((S)-15-(2-((S)-2-methylpyrrolidin-2-yl)-1H-benzo[d]imidazol-4-yl)-3,9,15-trioxo-1-phenyl-2-oxa-4, 10,14-triazapentadecan-8-yl)amino)-1-oxobutan-2-yl)carbamoyl)pyrrolidin-1-yl)-8-oxooct-5-en-4-yl)carbamate]",PARP1 inhibition compared with untargeted veliparib,[8],similar
same,cytotoxicity compared with unconjugated veliparib,[1]; P<0.05,significantly less toxic
same,concentration at which neurotoxicity (defined as >10% cell death) was seen,[1],10 µM
same,concentration in mitochondria-enriched fractions,[9],116±55 pmol/10 μg protein
same,concentration in nuclear-enriched fractions,[9],29±27 pmol/10 μg protein
same,PARP1 inhibitory capacity of mitochondria-enriched fractions compared to unconjugated veliparib,[10],greater PARP1 inhibitory capacity
same,LDH release after OGD,"[2]; 10 nM, 2 h OGD, then 24 h, mean±SD, vehicle 38.0±2.5%",12.4±3.1%
same,reduction of OGD-induced cell death vs. vehicle,"[2]; 10 nM, 2 h OGD, then 24 h normal culture",67%
same,effect on OGD-induced cell death at low nanomolar concentrations,"[2]; 2 h OGD, then 24 h",significantly attenuated OGD-induced cell death
same,protection against OGD at concentrations >100 nM,[2],no additional protection
same,efficacy vs. veliparib at higher concentrations,"[3]; 10 μM, LDH at 24 h",slightly more effective than veliparib
same,effect on glutamate-induced ferroptosis,[3],inhibit glutamate-induced ferroptosis
same,mitochondrial NAD+ stores after OGD,[4],preserve mitochondrial NAD^+ stores
same,efflux of NAD+ from the mitochondria to the cytosol,"[4]; 10 nM, 24 h after OGD",prevented efflux of NAD^+ from the mitochondria to the cytosol
same,mitochondrial architecture after OGD (STED),[5],partially preserved
same,PAR immunoreactivity after OGD vs. vehicle (STED),[5]; 1 h,reduced
same,PAR immunofluorescence after OGD (confocal),[5],reduction of PAR immunofluorescence
same,concentration at which radiation damage was decreased,[6],≥ 5 µM
same,survival after IR,[6],90.1%
same,number of PCR-detectable mtDNA lesions following γ-IR,"[7]; DNA extracted 4 and 24 h post-IR, vehicle 0.48±0.03",0.30±0.03
